What was measured:
[1] = tested on: primary cultured hepatocytes; experiment: Cell-protecting effect against cold shock in primary cultured hepatocytes (WST-1); assay type: cell-based; details: Rattus norvegicus, Hepatocyte, 37° C. for 1 hour, 4° C. for 22 hours, then 37° C., cell viability by WST-1
Experimental: In order to reproduce a condition for preservation prior to organ transplantation, primary cultured hepatocytes were prepared according to Experimental Example 1 and treated with the compounds of the working examples at 9 different concentrations that had been prepared by 3-fold serial dilution method using a starting concentration of 25 μM. The mixture was cultured at 37° C. for 1 hour, stored at 4° C. for 22 hours, and then transferred into an incubator at 37° C. and cultured therein. Cell viability was measured by the optical density at 440 nm according to the WST-1 method (MK-400, Takeda), and IC50 (unit: μM) was obtained using prism software (see Table 1).

[2] = tested on: primary hepatocytes isolated from rats; experiment: Hepatocyte-protecting effect: viability of isolated primary hepatocytes in culture (WST-1); assay type: cell-based; details: rat primary hepatocytes; treated at 1 or 10 μM; WST-1, optical density at 440 nm
Experimental: If cells are isolated from in vivo environment and their culture or preservation in vitro is begun, it would act as a stress to cells, and the apoptosis mechanism would begin to work. For preservation of organs or tissues, it is necessary to protect them from such a primary stress.
In order to verify this, primary hepatocytes isolated from rats were treated with the compounds of the working examples to observe how well the compounds can protect them from a primary stress. Primary hepatocytes were isolated using the Seglen PO method (Experimental Cell Research 74 (1972) pp. 450-454). Briefly, hepatocytes were isolated according to the two-step collagenase perfusion method and then centrifuged using percoll gradient (Kreamer BL etc., In Vitro Cellular & Developmental Biology 22 (1986) pp. 201-211) at low speed (500 rpm) for 10 minutes to remove dead cells. Viability of hepatocytes was maintained at 90% or more. Cells were suspended in HepatoZYME media (Gibco BRL) and counted. 1.5×10^4 cells of 100 μl were put into a 96-well plate (BD biocoat) coated with collagen and attached to the bottom for 3-4 hours. […] After 24, 72 or 144 hours, cell viability was measured to evaluate a hepatocyte-protecting effect.
Cell viability was measured by the optical density at 440 nm according to the WST-1 method (MK-400, Takeda). […]

[3] = tested on: rat-isolated perfusion liver; experiment: Protecting effect against cold ischemia/warm reperfusion injury in rat-isolated perfusion liver model; details: 30 μM in HTK solution, 24-hour cold preservation at 4° C.
Experimental: In order to verify an organ preservation effect, rat-isolated perfusion liver model was used to evaluate a protecting effect of the compounds of the working examples against cold preservation injury. A white rat was anesthetized by intraperitoneal injection of sodium pentobarbital (50 mg/kg) and administered with heparin (500 U/kg) by intravenous injection to prevent blood coagulation. After incising the abdominal median line, in order to measure bile output, polyethylene tube-10 was inserted into the bile duct, and the coronary vein was tied. Polyethylene tube-190 was inserted into the hepatic portal vein, and a perfusate, Krebs-Henseleit bicarbonate buffer (KHBB) (at pH 7.4 at 37° C.) was perfused at a rate of 4 mL/min/g. […] During the perfusion, a mixed gas (O2 95% and CO2 5%) was continuously injected to KHBB to supply oxygen. […]
In order to observe a protecting effect against ischemia and reperfusion injury, bile output and perfusate's LDH activity were measured. KHBB perfusate released from liver at 5, 10, 20, 30, 40, 50, 60, 70 and 80 minutes after reperfusion was collected, and LDH activity in the perfusate was measured using a biochemical automatic analyzer, Hitachi 7150 (FIG. 4). Bile secreted through the polyethylene tube which had been inserted into the bile duct at 0˜20, 20˜40, 40˜60 and 60˜80 minutes after reperfusion was collected, and bile output was measured (FIG. 5).

[4] = tested on: human embryonic lung cell line (LB-HEL); experiment: Cell-protecting effect against cold shock in LB-HEL cells (WST-1); assay type: cell-based; details: cold shock at 4° C. for 24 hours, then 37° C., cell viability by WST-1
Experimental: The same results as above were also obtained in other types of cells such as human embryonic lung cell line (LB-HEL) as well as hepatocytes (see FIG. 2 and Table 2). More specifically, LB-HEL cells were plated at 1.5×10^6 cells/well using DMEM medium (Gibco BRL) and treated with DMSO, nec-1, IM-54 or the compounds of Examples 126, 127, 137 and 138 at indicated concentrations. After storage at 4° C. for 24 hours, the mixture was transferred into an incubator at 37° C. and cultured therein. In order to verify recovery capacity at 37° C., cell viability after 24 hours post-transfer was measured by the optical density at 440 nm according to the WST-1 method (MK-400, Takeda) and compared with cell viability prior to cold shock (FIG. 2).

Structure (SMILES) | IC50 [1] [nM] | viability after 144 hours, compared with viability after 24 hours [2] [%] | total amount of bile output ([3]; 80 minutes of reperfusion) [ml/g liver] | inhibition at 30 µM ([3]; Rattus norvegicus, until 50 minutes of reperfusion, read-out: inhibition of LDH activity in the perfusate, compared with the HTK group) [%] | IC50 [4] [nM] | viability after 72 hours, compared with viability after 24 hours [2]
O=C(O)C[C@H]1CSC(c2cc3cc(Oc4ccccc4)cc(NC4CCCC4)c3[nH]2)=N1 [Example 21, [(S)-2-(7-cyclopentylamino-5-phenoxy-1H-indol-2-yl)-4,5-dihydro-thiazole-4-yl]-acetic acid] | < 120 | ≥ 80 | – | – | – | –
O=S1(=O)CCN(Cc2cc(NC3CCOCC3)c3[nH]c(-c4ccccc4)cc3c2)CC1 [Example 126, [5-(1,1-dioxo-thiomorpolin-4-ylmethyl)-2-phenyl-1H-indol-7-yl]-(tetrahydropyran-4-yl)-amine] | 248 | – | 0.070±0.006 | 50 to 70 | < 100 | –
C[Si](C)(C)c1[nH]c2c(NC3CCOCC3)cc(CN3CCS(=O)(=O)CC3)cc2c1-c1ccccc1 [Example 146, [5-(1,1-dioxo-thiomorpholin-4-ylmethyl)-3-phenyl-2-trimethylsilanyl-1H-indol-7-yl]-(tetrahydropyran-4-yl)-amine] | 603 | – | – | – | 823 | –
C[C@H](NC(=O)C(=O)Nc1ccccc1C(C)(C)C)C(=O)N[C@@H](CC(=O)O)C(=O)COc1c(F)c(F)cc(F)c1F [IDN6556, reference compound] | – | – | – | – | – | about 50%
